One series concerns Mus musculus. In words: Toxicity in Balb/c mouse implanted with mouse CT26 cells assessed as increase in liver weight at 1 mg/kg, iv for 7 consecutive days starting from day 8 post tumor implantation. It counts as organism-based. The note with it: in vivo.
Series [1] has as its system HCT-116. In words: Upregulation of SSAT protein expression in human HCT116 cells at 2.5 to 10 uM after 24 hrs by Western blot method. It counts as functional, cell-based. For orientation: A western blot detects proteins with antibodies after separation by electrophoresis.
The subject of series [2] is HCT-116. In words: Induction of apoptosis in human HCT116 cells assessed as late apoptotic cells at 10 uM after 24 hrs by annexin V-FITC/propidium iodide staining based flow cytometry (reference value: 2.03%). Format: functional.
Series [3] concerns HCT-116. In words: Induction of autophagy in human HCT116 cells at 5 to 20 uM after 24 hrs in presence of autophagy inhibitor 3-MA by Lyso staining based flow cytometry. Format: functional, cell-based. (In general: In flow cytometry, cells or beads pass a laser one at a time.)
For series [4], the system named is HCT-116. Put plainly: Induction of autophagy in human HCT116 cells at 5 to 20 uM after 24 hrs in presence of pan-caspase inhibitor Z-VAD-FMK by Lyso staining based flow cytometry. Format: functional, cell-based.
Series [5] has as its system HCT-116. Put plainly: Upregulation of p53 protein expression in human HCT116 cells up to 10 uM after 24 hrs in presence of autophagy inhibitor 3-MA by Western blot method. It counts as functional, cell-based.

Calls of active or inactive are those of the source. The rule behind the calls is not given here.

Turning to `Cl.Cl.Cl.NCCCCNCCCCNCCCCN1C(=O)c2cccc3cccc1c23`, the Activity result in the series on Mus musculus is “Toxic”; in the series with HCT-116 [1], “Dose-dependent effect”; in the series on HCT-116 [2] it was 27.58%. For the same compound, the result in the series with HCT-116 [3], with HCT-116 [4] and in the series on HCT-116 [5] was inactive.

For the origin of these results see ChEMBL document CHEMBL4130638, “Discovery of the Polyamine Conjugate with Benzo[ cd]indol-2(1 H)-one as a Lysosome-Targeted Antimetastatic Agent” (J Med Chem, 2018).
